Values after ≈ are worked out from the molar mass of the structure shown.
Assay: Solubility test (shaken at 20° C. for 3 hours, filtered, HPLC)
Format: physicochemical
Conditions: for solubility at 3 h: 20 °C, thermodynamic from solid; for solubility at 3 h / Solubility: 20° C., shaken 3 hours; for Solubility rank among Forms α, β, γ: in each solvent measured
Protocol: Each sample (i.e., Forms α, β, and γ of Compound A) was weighed to a 4-mL-volume glass vial. A test solution (3 mL) was added to the vial and the mixture was suspended. About 150 mg of the sample was weighed for the test solution of the 1st fluid for solubility test of The Japanese Pharmacopoeia and about 15 mg was weighed for the test solutions of the 2nd fluid for solubility test of The Japanese Pharmacopoeia and water. Each mixture was shaken with a constant temperature incubator shaker (manufactured by TAITEC) at 20° C. for 3 hours. After being shaken, the supernatant was filtered through a polytetrafluoroethylene disk filter (Millex-LG; manufactured by Millipore) with the 0.2-μm pore size and 4-mm diameter. The measurement was performed by high-performance liquid chromatography (HPLC).

[1] = Solvent: JP 1st fluid for solubility test, pH about 1.2
[2] = Solvent: JP 2nd fluid for solubility test (water / phosphate buffer pH 6.8, 1:1)

solubility at 3 h (JP 1st fluid for solubility test, pH 1.2, simulated gastric fluid, Solvent: JP 1st fluid for solubility test, pH about 1.2) [µg/mL] | solubility at 3 h (JP 2nd fluid for solubility test, pH 6.8, aqueous buffer, Solvent: JP 2nd fluid for solubility test (water / phosphate buffer pH 6.8, 1:1)) [µg/mL] | Solubility rank among Forms α, β, γ | solubility at 3 h (water, water, Solvent: Water) [µg/mL] | Solubility [1] [µg/mL] | Solubility [2] [µg/mL] | Solubility (Solvent: Water) [µg/mL] | Structure (SMILES)
45000 (≈ 145 mM) | 2700 (≈ 8.7 mM) | highest solubility | 2600 (≈ 8.38 mM) | – | – | – | C[C@H]1CN(C(=O)CC#N)[C@]12CCN(c1ncnc3[nH]ccc13)C2 [Form α, 3-((3S,4R)-3-methyl-6-(7H-pyrrolo[2,3-d]pyrimidin-4-yl)-1,6-diazaspiro[3.4]octan-1-γ 1)-3-oxopropanenitrile]
– | – | – | – | 39100 (≈ 126 mM) | 2100 (≈ 6.77 mM) | 2000 (≈ 6.44 mM) | C[C@H]1CN(C(=O)CC#N)[C@]12CCN(c1ncnc3[nH]ccc13)C2 [Form β, 3-((3S,4R)-3-methyl-6-(7H-pyrrolo[2,3-d]pyrimidin-4-yl)-1,6-diazaspiro[3.4]octan-1-γ 1)-3-oxopropanenitrile]
– | – | lowest solubility | – | 36400 (≈ 117 mM) | 1500 (≈ 4.83 mM) | 1500 (≈ 4.83 mM) | C[C@H]1CN(C(=O)CC#N)[C@]12CCN(c1ncnc3[nH]ccc13)C2 [Form γ, 3-((3S,4R)-3-methyl-6-(7H-pyrrolo[2,3-d]pyrimidin-4-yl)-1,6-diazaspiro[3.4]octan-1-γ 1)-3-oxopropanenitrile]

Source: US11339181B2, “Crystalline forms of a Janus kinase inhibitor” (Japan Tobacco Inc., priority 2016, dated 2022)
